The target of the test is T1, LXRβ (Homo sapiens, UniProt P55055).
T1 construct: Co-transfection expression plasmids, comprising full-length LXRα (pCMX-h LXRα[…] or LXRβ (pCMX-hLXRβ)); expressed in transfected cells; host or cells: CV-1 African Green Monkey Kidney Cells
T1 sequence (P55055 1-460): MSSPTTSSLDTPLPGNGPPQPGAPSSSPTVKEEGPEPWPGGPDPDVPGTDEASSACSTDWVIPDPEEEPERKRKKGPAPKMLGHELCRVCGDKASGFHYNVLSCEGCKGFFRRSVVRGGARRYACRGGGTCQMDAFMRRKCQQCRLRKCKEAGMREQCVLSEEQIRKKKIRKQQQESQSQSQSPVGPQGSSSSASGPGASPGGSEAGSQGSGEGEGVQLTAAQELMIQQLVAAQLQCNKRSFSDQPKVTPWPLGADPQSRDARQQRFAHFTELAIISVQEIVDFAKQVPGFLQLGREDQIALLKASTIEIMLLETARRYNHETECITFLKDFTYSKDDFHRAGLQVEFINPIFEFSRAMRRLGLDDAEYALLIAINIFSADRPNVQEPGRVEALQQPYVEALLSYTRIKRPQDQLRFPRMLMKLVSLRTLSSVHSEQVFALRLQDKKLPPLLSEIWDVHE
T1 sequence (P19793 1-462 partner): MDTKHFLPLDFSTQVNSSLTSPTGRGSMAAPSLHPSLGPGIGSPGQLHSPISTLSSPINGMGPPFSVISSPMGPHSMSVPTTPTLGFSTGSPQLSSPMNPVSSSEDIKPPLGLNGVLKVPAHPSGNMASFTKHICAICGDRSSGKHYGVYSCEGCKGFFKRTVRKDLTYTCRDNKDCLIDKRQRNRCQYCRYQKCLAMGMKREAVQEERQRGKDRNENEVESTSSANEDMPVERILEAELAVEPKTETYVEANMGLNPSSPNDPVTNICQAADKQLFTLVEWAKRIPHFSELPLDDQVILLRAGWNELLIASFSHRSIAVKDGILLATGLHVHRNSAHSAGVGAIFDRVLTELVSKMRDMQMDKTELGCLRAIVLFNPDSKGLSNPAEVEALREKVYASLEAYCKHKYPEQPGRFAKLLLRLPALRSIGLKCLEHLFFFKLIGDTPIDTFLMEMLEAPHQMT
As to the kind of experiment: Co-transfection assay (LXRE luciferase reporter), LXRβ. The class given is cell-based. As to conditions: for EC50: CV-1 cells transfected with pCMX-hLXRβ and LXREx1-Tk-Luciferase, 20 hours incubation; for Emax: LXRβ co-transfection, relative to high control 1-(2,4-difluorobenzyl)-2-oxo-6-(4-phenoxyphenyl)-4-(trifluoromethyl)-1,2-dihydropyridine-3-carbonitrile, read-out: % Efficacy. The essentials:
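CV-1 cells transiently co-transfected with full-length human LXRβ expression plasmid, LXREx1-Tk-luciferase reporter and β-galactosidase control, then exposed to compound for 20 h at 37 °C. Luciferase luminescence read; EC50 from 11-point, ½-log dose–response fit, efficacy relative to high-control agonist maximum.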

As a reminder, the EC50 is the concentration that produces a half-maximal response. Higher therefore signals lower potency in that assay.

Molecules are shown by their SMILES.

`Cc1nc(-c2cc(-c3cccc(S(C)(=O)=O)c3)ccc2-n2cc(C(F)(F)F)nc2C)c(-c2ccc(OC(F)F)c(OCC3CC3)c2)o1` [Example 382, 5-(3-(cyclopropylmethoxy)-4-(difluoromethoxy)phenyl)-2-methyl-4-(4-(2-methyl-4-(trifluoromethyl)-1H-imidazol-1-yl)-3′-(methylsulfonyl)biphenyl-3-yl)oxazole]: the EC50 amounted to 57 nM and the Emax stood at 62%.
For the compound `Cc1nc(-c2cc(-c3cc(F)c(CO)c(S(C)(=O)=O)c3)ccc2-n2cc(C(F)(F)F)nc2C)c(-c2ccc(OC(F)F)c(OCC3CC3)c2)o1` [Example 383], a half-maximal effect (EC50) was put at 23 nM and the Emax was determined as 67%.
Turning to `Cc1nc(-c2cc(-c3cccc(S(C)(=O)=O)c3)ccc2-n2cc(C(F)(F)F)nc2C)c(-c2ccc(OC(F)F)nc2)o1` [Example 384, 5-(6-(difluoromethoxy)pyridin-3-yl)-2-methyl-4-(4-(2-methyl-4-(trifluoromethyl)-1H-imidazol-1-yl)-3′-(methylsulfonyl)biphenyl-3-yl)oxazole], a half-maximal effect (EC50) was put at 12 nM and the Emax is 72%.
On to `Cc1nc(-c2cc(-c3cc(F)c(CO)c(S(C)(=O)=O)c3)ccc2-n2cc(C(F)(F)F)nc2C)c(-c2ccc(OC(F)F)nc2)o1` [Example 385, (3′-(5-(6-(difluoromethoxy)pyridin-3-yl)-2-methyloxazol-4-yl)-3-fluoro-4′-(2-methyl-4-(trifluoromethyl)-1H-imidazol-1-yl)-5-(methylsulfonyl)biphenyl-4-yl)methanol], for which the EC50 amounted to 15 nM and the Emax amounted to 79%.
For `Cc1nc(-c2cc(-c3cccc(S(C)(=O)=O)c3)ccc2-n2cc(C(F)(F)F)nc2C)c(-c2ccc(OC(F)F)c(OC3CC3)c2)o1` [Example 386, 5-(3-cyclopropoxy-4-(difluoromethoxy)phenyl)-2-methyl-4-(4-(2-methyl-4-(trifluoromethyl)-1H-imidazol-1-yl)-3′-(methylsulfonyl)biphenyl-3-yl)oxazole], the EC50 was 73 nM and the Emax was found to be 64%.
For `Cc1nc(-c2cc(-c3cc(F)c(CO)c(S(C)(=O)=O)c3)ccc2-n2cc(C(F)(F)F)nc2C)c(-c2ccc(OC(F)F)c(OC3CC3)c2)o1` [Example 387, (3′-(5-(3-cyclopropoxy-4-(difluoromethoxy)phenyl)-2-methyloxazol-4-yl)-3-fluoro-4′-(2-methyl-4-(trifluoromethyl)-1H-imidazol-1-yl)-5-(methylsulfonyl)biphenyl-4-yl)methanol] the same measures were 19 nM and 73%.
On the same counts, the results for `Cc1nc(-c2cc(-c3cccc(S(C)(=O)=O)c3)ccc2-n2cc(C(F)(F)F)nc2C)c(-c2cccnc2OC(F)F)o1` [Example 388, 5-(2-(difluoromethoxy)pyridin-3-yl)-2-methyl-4-(4-(2-methyl-4-(trifluoromethyl)-1H-imidazol-1-yl)-3′-(methylsulfonyl)biphenyl-3-yl)oxazole] are 1380 nM and 32%.
`Cc1nc(-c2cc(-c3cc(F)c(CO)c(S(C)(=O)=O)c3)ccc2-n2cc(C(F)(F)F)nc2C)c(-c2cccnc2OC(F)F)o1` [Example 389, (3′-(5-(2-(difluoromethoxy)pyridin-3-yl)-2-methyloxazol-4-yl)-3-fluoro-4′-(2-methyl-4-(trifluoromethyl)-1H-imidazol-1-yl)-5-(methylsulfonyl)biphenyl-4-yl)methanol]: the response was half-maximal at 239 nM (EC50) and the Emax was determined as 39%.
With `Cc1nc(-c2cc(-c3cccc(S(C)(=O)=O)c3)ccc2-n2cc(C(F)(F)F)nc2C)c(-c2cccnc2C2CC2)o1` [Example 390, 5-(2-cyclopropylpyridin-3-yl)-2-methyl-4-(4-(2-methyl-4-(trifluoromethyl)-1H-imidazol-1-yl)-3′-(methylsulfonyl)biphenyl-3-yl)oxazole], the EC50 is 2080 nM and the Emax came to 62%.
On to `Cc1nc(-c2cc(-c3cc(F)c(CO)c(S(C)(=O)=O)c3)ccc2-n2cc(C(F)(F)F)nc2C)c(-c2cccnc2C2CC2)o1` [Example 391], for which the midpoint of the response, the EC50, lay at 207 nM and the Emax worked out at 51%.

The values above are taken from US9834542B2, “LXR modulators” (BRISTOL-MYERS SQUIBB COMPANY, priority 2013, dated 2017).
